From patent US20230407373A1 (priority 2020, published 2023)
Like-named read-outs stand apart in the source and are kept apart here.

Key:
Type in all cases: binding
[1] = tested on: gRNA of HCoV-OC43; details: for target (spectral count, OC43 Probe I RNP capture) / background (spectral count, no-probe control): type n_48_v: 48 hours post-infection; for target (spectral count, OC43 Probe I RNP capture): infected cells, unweighted spectral count; for background (spectral count, no-probe control): no-probe control on infected cells; for target (spectral count) / background (spectral count): type g_36_m, 36 hpi, Probe I; for target (spectral count): HCoV-OC43-infected HCT-8 cells; for background (spectral count): uninfected-probe control
[2] = tested on: HCoV-OC43 gRNA and sgRNA; details: for target (unweighted spectral count, OC43 Probe II) / background (unweighted spectral count, no-probe control): type n_48_v, 48 hpi; for target (unweighted spectral count, OC43 Probe II): OC43 Probe II capture on infected cells; for background (unweighted spectral count, no-probe control): no-probe control on infected cells; for target (unweighted spectral count, OC43 Probe II capture) / target (unweighted spectral count): tested against no-probe control; for target (unweighted spectral count, OC43 Probe II capture): FDR<10%; for target (unweighted spectral count): OC43 Probe II, infected cells; for target (spectral count) / background (spectral count): type s_36_m, Probe II; for target (spectral count): HCoV-OC43-infected HCT-8 cells; for background (spectral count): uninfected-probe control
[3] = tested on: SARS-CoV-2 gRNA and sgRNAs; details: for target (unweighted spectral count in RNP capture): Probe II capture, LC-MS/MS LFQ; for background (unweighted spectral count in control): no-probe control pull-down, used as background for Probe II

With ABCF1 the “target (spectral count, OC43 Probe I RNP capture)” value [1] was 7, the “background (spectral count, no-probe control)” value [1] was 1 and the “target (unweighted spectral count, OC43 Probe II)” value [2] was 5. For the same substance, the “background (unweighted spectral count, no-probe control)” value [2] was 1.
With AKAP8 the “target (unweighted spectral count, OC43 Probe II capture)” value ([2]; 36 hpi, type n_36_v) was 4.
With ATP13A1 the “target (unweighted spectral count, OC43 Probe II capture)” value ([2]; 36 hpi, type n_36_v) was 6.
With C19orf66 the “target (unweighted spectral count, OC43 Probe II capture)” value ([2]; 36 hpi, type n_36_v) was 4, the “target (unweighted spectral count, OC43 Probe II)” value [2] was 6 and the “background (unweighted spectral count, no-probe control)” value [2] was 1.
CCAR2: host protein, UniProt Q8N163 was tested, and the “target (spectral count)” value [1] was 20, the “background (spectral count)” value [1] was 1 and the “target (spectral count, OC43 Probe I RNP capture)” value [1] was 23. For the same substance, the “background (spectral count, no-probe control)” value [1] was 1, the “target (unweighted spectral count, OC43 Probe II capture)” value ([2]; 36 hpi, type n_36_v) was 12 and the “target (unweighted spectral count)” value ([2]; 24 hpi (type n_24_v)) was 8. For the same substance, the “target (unweighted spectral count, OC43 Probe II)” value [2] was 20, the “background (unweighted spectral count, no-probe control)” value [2] was 1 and the “target (spectral count)” value ([2]; 36 hpi) was 12. For the same substance, the “background (spectral count)” value ([2]; 36 hpi) was 1.
With DDX39B the “target (spectral count, OC43 Probe I RNP capture)” value [1] was 5, the “background (spectral count, no-probe control)” value [1] was 1 and the “target (unweighted spectral count, OC43 Probe II)” value [2] was 6. The “background (unweighted spectral count, no-probe control)” value [2] was 1.
DDX54 was tested, and the “target (unweighted spectral count, OC43 Probe II capture)” value ([2]; 36 hpi, type n_36_v) was 5.
For EEF1G, the “target (unweighted spectral count, OC43 Probe II capture)” value ([2]; 36 hpi, type n_36_v) was 4.
For EIF4A1, the “target (unweighted spectral count in RNP capture)” value ([3]; […]) was 8, the “background (unweighted spectral count in control)” value [3] was 1 and the “target (unweighted spectral count)” value ([2]; 24 hpi (type n_24_v)) was 5.
In the case of EIF4G1: host protein, UniProt Q04637, the “target (unweighted spectral count in RNP capture)” value ([3]; […]) is reported as 18, the “background (unweighted spectral count in control)” value [3] is reported as 1 and the “target (unweighted spectral count, OC43 Probe II capture)” value ([2]; 24 hpi, type n_24_v) is reported as 4. The “target (unweighted spectral count, OC43 Probe II capture)” value ([2]; 36 hpi, type n_36_v) was 7, the “target (spectral count)” value ([2]; 36 hpi) was 7 and the “background (spectral count)” value ([2]; 36 hpi) was 1.
With ENO1 the “target (unweighted spectral count in RNP capture)” value ([3]; […]) was 22 and the “background (unweighted spectral count in control)” value [3] was 4.
With ESYT1 the “target (unweighted spectral count, OC43 Probe II capture)” value ([2]; 36 hpi, type n_36_v) was 4.
With FAM125A the “target (unweighted spectral count in RNP capture)” value ([3]; […]) was 97.
With FXR2 the “target (unweighted spectral count in RNP capture)” value ([3]; […]) was 23, the “background (unweighted spectral count in control)” value [3] was 1 and the “target (spectral count, OC43 Probe I RNP capture)” value [1] was 7. For the same substance, the “background (spectral count, no-probe control)” value [1] was 1, the “target (unweighted spectral count, OC43 Probe II capture)” value ([2]; 36 hpi, type n_36_v) was 5 and the “target (unweighted spectral count, OC43 Probe II)” value [2] was 7. The “background (unweighted spectral count, no-probe control)” value [2] was 1.
With GAPDH the “target (unweighted spectral count in RNP capture)” value ([3]; […]) was 12 and the “background (unweighted spectral count in control)” value [3] was 1.
GEMIN5 was tested, and the “target (unweighted spectral count of the protein in the RNP capture experiment)” value ([3]; […], LC-MS/MS label-free quantification, probe pool not given) was 5 and the “back-ground (unweighted spectral count of the protein in the control experiment)” value ([3]; protein background of the control (e.g. no-probe) experiment, […]) was 1.
In the case of H2AFY, the “target (unweighted spectral count)” value ([2]; 12 hpi (type n_12_v)) is reported as 4.
For HELZ2: host protein, UniProt Q9BYK8, the “target (spectral count)” value [1] was 11, the “background (spectral count)” value [1] was 1 and the “target (spectral count, OC43 Probe I RNP capture)” value [1] was 8. The “background (spectral count, no-probe control)” value [1] was 1, the “target (unweighted spectral count, OC43 Probe II capture)” value ([2]; 36 hpi, type n_36_v) was 16 and the “target (unweighted spectral count, OC43 Probe II)” value [2] was 20. The “background (unweighted spectral count, no-probe control)” value [2] was 1, the “target (spectral count)” value ([2]; 36 hpi) was 16 and the “background (spectral count)” value ([2]; 36 hpi) was 1.
With HIST1H1C the “target (unweighted spectral count)” value ([2]; 12 hpi (type n_12_v)) was 7.
HSPA1B was tested, and the “target (unweighted spectral count, OC43 Probe II capture)” value ([2]; 36 hpi, type n_36_v) was 4.
For KHDR ? S1, the “target (spectral count, OC43 Probe I RNP capture)” value [1] was 18 and the “background (spectral count, no-probe control)” value [1] was 1.
For KHDRB51, the “target (unweighted spectral count in RNP capture)” value ([3]; […]) was 13 and the “background (unweighted spectral count in control)” value [3] was 1.
KHDRBS1: host protein, UniProt Q07666 was tested, and the “target (spectral count)” value [1] was 13, the “background (spectral count)” value [1] was 2 and the “target (unweighted spectral count, OC43 Probe II capture)” value ([2]; 36 hpi, type n_36_v) was 12. The “target (unweighted spectral count)” value ([2]; 24 hpi (type n_24_v)) was 10, the “target (unweighted spectral count, OC43 Probe II)” value [2] was 14 and the “background (unweighted spectral count, no-probe control)” value [2] was 1. The “target (spectral count)” value ([2]; 36 hpi) was 12 and the “background (spectral count)” value ([2]; 36 hpi) was 2.
For KRT16, the “target (unweighted spectral count)” value ([2]; 24 hpi (type n_24_v)) was 22.
